Cc1cnc(NC(=O)C2=C(O)c3ccccc3S(=O)(=O)N2C)s1
solubility (mole fraction)
Details | 293.15 K | 298.15 K | 303.15 K | 308.15 K | 313.15 K
in ethanol | 4.47e-05 | 5.67e-05 | 7.52e-05 | 9.37e-05 | 0.000123
in ethyl acetate | 0.000389 | 0.000453 | 0.00053 | 0.000607 | 0.000707

From BigSolDB 2.1
